# Where “and” joins values, the source holds several entries; their conditions need not be identical. Equal entries are not always repeated. Inconclusive results and toxic doses are left out.
# Test system: BDF1 mice, B16 melanoma ip, median survival T/C
# Assay: NCI In Vivo Anticancer Drug Screen. Data for tumor model B16 Melanoma (intraperitoneal) in B6D2F1 (BDF1) mice
# Details: endpoint: median survival time, higher = longer survival
# Summary of the method: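 Survival or tumor size is measured after treatment of tumor-bearing mice and normalised to the vehicle-treated control group.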
# [1] = dose: 6.25 mg/kg/injection, schedule: Q01DX009 (ip), vehicle: saline with Tween-80
# [2] = dose: 12.5 mg/kg/injection, schedule: Q01DX009 (ip), vehicle: saline with Tween-80
# [3] = dose: 25.0 mg/kg/injection, schedule: Q01DX009 (ip), vehicle: saline with Tween-80
# [4] = dose: 50.0 mg/kg/injection, schedule: Q01DX009 (ip), vehicle: saline with Tween-80
# [5] = dose: 100.0 mg/kg/injection, schedule: Q01DX009 (ip), vehicle: saline with Tween-80
smiles,measurement,setting,value
COc1cccc2c1C(=O)c1c(O)c3c(c(O)c1C2=O)C[C@@](O)(C(C)O)C[C@@H]3OC1CC(N2CCOCC2)C(O)C(C)O1 (some centres undefined),T/C,"dose: 62.5 micrograms/kg/injection, schedule: Q01DX001 (ip), vehicle: water",100 % of control
same,T/C,"dose: 125.0 micrograms/kg/injection, schedule: Q01DX001 (ip), vehicle: water",104 % of control
same,T/C,"dose: 250.0 micrograms/kg/injection, schedule: Q01DX001 (ip), vehicle: water",112 % of control
CCN(CC)CCC(=O)c1ccccc1,T/C,"dose: 3.12 mg/kg/injection, schedule: Q01DX009 (ip), vehicle: saline with Tween-80",114 % of control
same,T/C,[1],108 % of control
same,T/C,[2],117 % of control
same,T/C,[3],107 % of control
same,T/C,[4],108 % of control
same,T/C,[5],107 % of control
COC1NC(=O)NC(=O)C1=[N+]=[N-] (centres undefined),T/C,"dose: 2.0 mg/kg/injection, schedule: Q01DX009 (ip), vehicle: water",112 % of control
CCCCCCCCCCCCCCCC(=O)N(CCC#N)CCCCCCCCCN(CCC#N)C(=O)CCCCCCCCCCCCCCC,T/C,"dose: 12.5 mg/kg/injection, schedule: Q04DX003 (ip), vehicle: Klucel (hydroxypropylcellulose) (HPC)",88 % of control
same,T/C,"dose: 25.0 mg/kg/injection, schedule: Q04DX003 (ip), vehicle: Klucel (hydroxypropylcellulose) (HPC)",90 % of control
COc1ccc(Cl)cc1N,T/C,[3],95 % of control
same,T/C,[4],100 % of control
same,T/C,[5],105 % of control
CCN=NNc1ccc(C)cc1,T/C,"dose: 3.13 mg/kg/injection, schedule: Q01DX009 (ip), vehicle: saline with Tween-80",95 % of control
same,T/C,[1],91 % of control
same,T/C,"dose: 6.25 mg/kg/injection, schedule: Q04DX003 (ip), vehicle: saline with Tween-80",94 % of control
same,T/C,[2],97 % of control
same,T/C,"dose: 12.5 mg/kg/injection, schedule: Q04DX003 (ip), vehicle: saline with Tween-80",101 % of control
same,T/C,[3],91 % of control
same,T/C,"dose: 25.0 mg/kg/injection, schedule: Q04DX003 (ip), vehicle: saline with Tween-80",103 % of control
COc1ccc(/C=N/n2c3ccccc3c3ccccc32)cc1OCCCN(C)C,T/C,"dose: 0.39 mg/kg/injection, schedule: Q01DX009 (ip), vehicle: saline",120 % of control
same,T/C,"dose: 0.78 mg/kg/injection, schedule: Q01DX009 (ip), vehicle: saline",102 % of control
same,T/C,"dose: 1.56 mg/kg/injection, schedule: Q01DX009 (ip), vehicle: saline",112 % of control
same,T/C,"dose: 3.12 mg/kg/injection, schedule: Q01DX009 (ip), vehicle: saline",105 % of control
same,T/C,"dose: 6.25 mg/kg/injection, schedule: Q01DX009 (ip), vehicle: saline",105 % of control
same,T/C,"dose: 12.5 mg/kg/injection, schedule: Q01DX009 (ip), vehicle: Klucel (hydroxypropylcellulose) (HPC)",97 % of control
CSC(=S)N/N=C/c1ccccn1,T/C,"dose: 0.75 mg/kg/injection, schedule: Q01DX009 (ip), vehicle: saline with Tween-80",86 % of control
same,T/C,"dose: 1.5 mg/kg/injection, schedule: Q01DX009 (ip), vehicle: saline with Tween-80",89 % of control
same,T/C,"dose: 3.0 mg/kg/injection, schedule: Q01DX009 (ip), vehicle: saline with Tween-80",86 % of control
same,T/C,"dose: 6.0 mg/kg/injection, schedule: Q01DX009 (ip), vehicle: saline with Tween-80",94 % of control
same,T/C,[2],110 % of control
same,T/C,[3],105 % of control
CC1CCCCN1CCNc1ccc(CO)c2sc3ccccc3c(=O)c12 (centres undefined),T/C,[3],112 % of control
same,T/C,[4],124 % of control
same,T/C,[5],121 % of control
CCCCCCCC(=O)OCC(=O)[C@]1(O)Cc2c(O)c3c(c(O)c2[C@@H](OC2CC(N)C(O)C(C)O2)C1)C(=O)c1c(OC)cccc1C3=O (some centres undefined),T/C,"dose: 0.25 mg/kg/injection, schedule: Q01DX009 (ip), vehicle: saline with Tween-80",176 % of control
same,T/C,"dose: 0.5 mg/kg/injection, schedule: Q01DX009 (ip), vehicle: saline with Tween-80",222 % of control
same,T/C,"dose: 1.0 mg/kg/injection, schedule: Q01DX009 (ip), vehicle: saline with Tween-80",151 % of control and 212 % of control
same,T/C,"dose: 1.25 mg/kg/injection, schedule: Q01DX001 (ip), vehicle: water",170 % of control
same,T/C,"dose: 2.0 mg/kg/injection, schedule: Q01DX009 (ip), vehicle: saline with Tween-80",150 % of control and 274 % of control
same,T/C,"dose: 2.5 mg/kg/injection, schedule: Q01DX001 (ip), vehicle: water",117 % of control (2×) and 214 % of control
same,T/C,"dose: 5.0 mg/kg/injection, schedule: Q01DX001 (ip), vehicle: water",97 % of control and 252 % of control
same,T/C,"dose: 10.0 mg/kg/injection, schedule: Q01DX001 (ip), vehicle: water",227 % of control
same,T/C,"dose: 20.0 mg/kg/injection, schedule: Q01DX001 (ip), vehicle: water",122 % of control
same,T/C,"dose: 1440.0 micrograms/kg/injection, schedule: Q01DX004 (ip), vehicle: other",115 % of control
same,T/C,"dose: 2400.0 micrograms/kg/injection, schedule: Q01DX004 (ip), vehicle: other",110 % of control
same,T/C,"dose: 4000.0 micrograms/kg/injection, schedule: Q01DX004 (ip), vehicle: other",122 % of control
